Measurements published in PMC3109749 (ACS medicinal chemistry letters, 2011).

Experiments:
[1] = biological target: T1, human FAAH (hFAAH) (Homo sapiens, UniProt O00519); experiment: enzyme-coupled human FAAH assay, kinact/Ki; assay type: biochemical
T1 sequence (O00519 32-579 limits assumed): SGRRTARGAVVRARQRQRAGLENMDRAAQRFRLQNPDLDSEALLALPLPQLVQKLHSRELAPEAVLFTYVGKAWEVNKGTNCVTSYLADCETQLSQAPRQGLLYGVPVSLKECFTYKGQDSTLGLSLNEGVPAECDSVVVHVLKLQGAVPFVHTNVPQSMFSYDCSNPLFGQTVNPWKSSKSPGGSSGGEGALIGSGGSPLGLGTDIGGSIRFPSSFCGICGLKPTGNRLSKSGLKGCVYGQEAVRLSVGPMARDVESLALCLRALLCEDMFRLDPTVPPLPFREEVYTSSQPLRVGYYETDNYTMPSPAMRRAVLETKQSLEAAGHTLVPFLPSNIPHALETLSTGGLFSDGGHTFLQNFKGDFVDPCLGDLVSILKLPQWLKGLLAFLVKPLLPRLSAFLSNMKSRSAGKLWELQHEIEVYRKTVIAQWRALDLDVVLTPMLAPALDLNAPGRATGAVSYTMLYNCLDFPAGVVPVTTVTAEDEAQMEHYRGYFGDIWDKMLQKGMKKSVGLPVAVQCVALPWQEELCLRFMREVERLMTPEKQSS

[2] = test system: rat model of inflammatory pain (CFA); conditions: not shown in this paper's figure; cited from earlier work
[3] = human liver microsomal stability and binding; assay type: in vitro ADME; conditions: predicted from in vitro experiments
[4] = test system: serine hydrolase superfamily (FAAH and other FP-reactive serine hydrolases); assay type: biochemical, mouse; conditions: for off targets in mouse membrane proteome (ABPP): brain membrane proteome, 10 and 100 μM
[5] = biological target: T2, serine hydrolase superfamily (FAAH and other FP-reactive serine hydrolases) (Mus musculus, UniProt O08914); assay type: biochemical; conditions: brain membrane proteome; at both 10 and 100 μM
T2 sequence (O08914 1-579): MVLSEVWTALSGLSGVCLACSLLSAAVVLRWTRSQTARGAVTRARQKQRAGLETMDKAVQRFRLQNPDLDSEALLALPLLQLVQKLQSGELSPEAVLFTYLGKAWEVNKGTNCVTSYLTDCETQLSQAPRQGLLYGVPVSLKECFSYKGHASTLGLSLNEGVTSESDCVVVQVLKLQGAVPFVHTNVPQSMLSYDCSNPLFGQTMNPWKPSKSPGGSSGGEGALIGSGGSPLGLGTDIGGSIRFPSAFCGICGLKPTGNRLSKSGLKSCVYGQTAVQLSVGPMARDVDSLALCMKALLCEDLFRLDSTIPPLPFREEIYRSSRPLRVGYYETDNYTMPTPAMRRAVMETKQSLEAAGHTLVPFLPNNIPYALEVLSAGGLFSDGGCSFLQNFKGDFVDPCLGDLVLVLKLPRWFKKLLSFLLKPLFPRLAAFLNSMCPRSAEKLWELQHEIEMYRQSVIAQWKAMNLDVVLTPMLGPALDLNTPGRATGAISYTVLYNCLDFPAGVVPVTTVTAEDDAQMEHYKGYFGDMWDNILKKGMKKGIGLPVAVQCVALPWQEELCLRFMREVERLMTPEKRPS

[6] = biological target: T3, FAAH (Rattus norvegicus, UniProt P97612); experiment: in vivo FAAH activity accompanying efficacy; conditions: at efficacious doses starting at 0.1 mg/kg; with elevations in anandamide and other fatty acid amides in brain and plasma
T3 sequence (P97612 1-579): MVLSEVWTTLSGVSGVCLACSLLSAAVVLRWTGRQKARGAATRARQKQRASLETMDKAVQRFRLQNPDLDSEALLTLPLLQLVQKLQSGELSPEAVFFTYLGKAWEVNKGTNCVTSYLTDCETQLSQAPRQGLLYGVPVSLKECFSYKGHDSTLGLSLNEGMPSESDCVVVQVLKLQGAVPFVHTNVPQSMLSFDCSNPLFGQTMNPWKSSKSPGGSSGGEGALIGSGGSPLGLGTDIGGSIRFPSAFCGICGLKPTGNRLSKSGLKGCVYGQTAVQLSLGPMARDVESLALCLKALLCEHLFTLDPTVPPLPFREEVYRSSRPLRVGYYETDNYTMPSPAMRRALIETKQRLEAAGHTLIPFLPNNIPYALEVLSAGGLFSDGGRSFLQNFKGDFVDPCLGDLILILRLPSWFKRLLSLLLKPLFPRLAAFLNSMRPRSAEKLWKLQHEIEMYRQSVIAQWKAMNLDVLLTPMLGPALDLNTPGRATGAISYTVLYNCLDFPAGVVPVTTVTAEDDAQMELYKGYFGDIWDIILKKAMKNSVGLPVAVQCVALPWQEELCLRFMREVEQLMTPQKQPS

[7] = test system: serine hydrolase superfamily (FAAH and other FP-reactive serine hydrolases); assay type: biochemical, human; conditions: for off targets in human membrane proteome (ABPP): brain membrane proteome, 10 and 100 μM
[8] = biological target: T4, serine hydrolase superfamily (FAAH and other FP-reactive serine hydrolases) (Homo sapiens, UniProt O00519); assay type: biochemical; conditions: brain membrane proteome; at both 10 and 100 μM
T4 sequence (O00519 1-579): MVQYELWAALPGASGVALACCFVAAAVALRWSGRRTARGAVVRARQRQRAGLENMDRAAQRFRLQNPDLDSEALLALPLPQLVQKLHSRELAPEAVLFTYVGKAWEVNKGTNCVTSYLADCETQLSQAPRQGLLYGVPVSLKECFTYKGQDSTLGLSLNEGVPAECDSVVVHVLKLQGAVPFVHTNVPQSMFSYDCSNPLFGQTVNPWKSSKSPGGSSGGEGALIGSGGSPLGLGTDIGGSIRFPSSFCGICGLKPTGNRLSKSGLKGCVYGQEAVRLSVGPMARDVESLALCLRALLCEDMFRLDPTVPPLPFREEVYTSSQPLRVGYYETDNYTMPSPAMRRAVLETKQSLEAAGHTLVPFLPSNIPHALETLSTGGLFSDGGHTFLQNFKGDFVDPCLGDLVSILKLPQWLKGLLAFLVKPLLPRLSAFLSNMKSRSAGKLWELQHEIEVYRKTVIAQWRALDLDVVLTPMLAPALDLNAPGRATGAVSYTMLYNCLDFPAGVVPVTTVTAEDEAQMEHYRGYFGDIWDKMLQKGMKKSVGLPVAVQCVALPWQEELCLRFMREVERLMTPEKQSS

[9] = biological target: T5, rat FAAH (rFAAH) (Rattus norvegicus, UniProt P97612); experiment: enzyme-coupled rat FAAH assay, kinact/Ki; assay type: biochemical
T5 sequence (P97612 1-579): T3 sequence (P97612 1-579)

[10] = soluble proteome of liver, up to 100 μM

Structure (SMILES): O=C(Nc1cnccn1)N1CCC(=Cc2cccc(Oc3ccc(C(F)(F)F)cn3)c2)CC1 [Compound 22]
- fold higher kinact/Ki value for hFAAH as compared to 11 ([1]; compared to 11): 2 fold

Structure (SMILES): O=C(Nc1cccnc1)N1CCC(Cc2cccc(Oc3ccc(C(F)(F)F)cn3)c2)CC1 [Compound 7]
- minimum effective dose (MED), mechanical allodynia [2]: 3 mg/kg

Structure (SMILES): O=C(Nc1cccnc1)N1CCC/C(=C\c2cccc(Oc3ccc(C(F)(F)F)cn3)c2)C1 [Compound 16]
- fold less potent than 11 for hFAAH ([1]; compared to 11): approximately 19 fold

Structure (SMILES): O=C(Nc1cccnn1)N1CCC(=Cc2cccc(Oc3ccc(C(F)(F)F)cn3)c2)CC1 [Compound 23]
- predicted human blood clearance [3]: 0.6 mL/min/kg
- off targets in mouse membrane proteome (ABPP) [4]: no off targets
- inhibition of FAAH in mouse membrane proteome (ABPP) [5]: completely inhibited FAAH
- inhibition of FAAH activity in vivo [6]: near complete inhibition of FAAH activity
- off targets in human membrane proteome (ABPP) [7]: no off targets
- inhibition of FAAH in human membrane proteome (ABPP) [8]: completely inhibited FAAH

Structure (SMILES): NC(=O)c1cccc(-c2cccc(OC(=O)NC3CCCCC3)c2)c1 [Compound 2]
- off targets in mouse membrane proteome (ABPP) [4]: no off targets
- off targets among serine hydrolases in mouse soluble liver proteome (ABPP) [4, 10]: multiple off targets
- inhibition of FAAH in mouse membrane proteome (ABPP) [5]: completely inhibited FAAH
- off targets in human membrane proteome (ABPP) [7]: no off targets
- off targets among serine hydrolases in human soluble liver proteome (ABPP) [7, 10]: multiple off targets
- inhibition of FAAH in human membrane proteome (ABPP) [8]: completely inhibited FAAH

Structure (SMILES): O=C(Nc1cccnn1)N1CCC(=Cc2cccc(Oc3ccc(C(F)(F)F)nc3)c2)CC1 [Compound 28]
- fold less potent for hFAAH as compared to 23 [1]: ≤ 2 fold

Structure (SMILES): Cc1noc(NC(=O)N2CCC(=Cc3cccc(Oc4ccc(C(F)(F)F)cn4)c3)CC2)c1C [Compound 24]
- fold less potent for hFAAH as compared to 23 [1]: 5 fold
- fold more potent for rFAAH as compared to 23 ([9]; compared to 23): 2 fold

Structure (SMILES): O=C(Nc1cccnn1)N1CCC(=Cc2cccc(Oc3ccccc3)c2)CC1 [Compound 27]
- additional fold loss in potency on removal of the trifluoromethyl substituent ([1]; compared to 26): 10 fold

Structure (SMILES): O=C(Nc1cccnc1)N1CCC(=Cc2cccc(Oc3ccc(C(F)(F)F)cn3)c2)CC1 [Compound 11]
- fold more potent (higher kinact/Ki) than 7 for hFAAH ([1]; compared to PF-3845 (7)): approximately 2 fold
- fold more potent (higher kinact/Ki) than 7 for rFAAH ([9]; compared to PF-3845 (7)): ~4 fold

Structure (SMILES): O=C(Nc1cccnn1)N1CCC(=Cc2cccc(Oc3ccc(C(F)(F)F)cc3)c2)CC1 [Compound 26]
- fold less potent for hFAAH as compared to 23 [1]: 2 fold

Structure (SMILES): O=C(Nc1cccnc1)N1CCC/C(=C/c2cccc(Oc3ccc(C(F)(F)F)cn3)c2)C1 [Compound 17]
- FAAH potency in words ([1]; relative to the parent analogue (9 vs 4, 10 vs 5, 12-17 vs 11)): activity was almost completely abolished
